Values of other authors, collected in US20160279124A1, “Method for Treating Addiction” (priority 2015, published 2016).

Tested on: opioid use
Conditions: clinic and office based medical detox and Naltrexone treatment: pill, injectable and implant; for opioid use

For `O=C1CC[C@@]2(O)[C@H]3Cc4ccc(O)c5c4[C@@]2(CCN3CC2CC2)[C@H]1O5` [Naltrexone], the Success is listed as 8% for.
